From US9650395B2, “Antibacterial compounds and methods for use” (PTC Therapeutics, Inc., priority 2011, dated 2017) come the findings set out here.

The subject of experiment [1] is control Gram-negative E. coli 25922 strain. The experiment is described as follows: Antibacterial activity, microbroth dilution MIC, E. coli 25922. Format: cell-based, Escherichia coli. Conditions: Escherichia coli, read-out: MIC, 25922.
Experiment [2] relates to quinolone resistant E. coli LZ3111. The experiment is described as follows: Antibacterial activity, MIC, quinolone resistant E. coli LZ3111. Conditions: Escherichia coli, read-out: MIC, LZ3111. Format: cell-based, Escherichia coli. From the text: The antibacterial activity from a microbroth dilution method may be presented as the minimum inhibitory concentration (MIC in […]). The MIC value is the lowest concentration of a drug which prevents macroscopically visible bacterial growth under test conditions.
Mutations in these regions are known to confer a high level resistance to the quinolone class of antibiotics.

Experiment [3] deals with Gram-positive Staphylococcus aureus (S. aureus) 29213. Nature of the experiment: Antibacterial activity, microbroth dilution MIC, S. aureus 29213. Conditions: Staphylococcus aureus, read-out: MIC, 29213. The class given is cell-based.
Experiment [4] has as its system super sensitive Gram-negative Escherichia coli (E. coli) BAS849. Nature of the experiment: Antibacterial activity, microbroth dilution MIC, E. coli BAS849. Conditions: Escherichia coli, read-out: MIC, BAS849. Format: cell-based.
Where [5] appears, read: E. coli 25922, microbroth dilution.
Where [6] appears, read: S. aureus 29213, microbroth dilution.
[7] abbreviates: E. coli BAS849, microbroth dilution.

Values after ≈ are worked out from the molar mass of the structure shown. Where a name gives a salt, the structure may show the parent alone. Read-outs that look alike come from different tables or passages of the source.

With `CCc1cc(C(=O)O)c(=O)[nH]c1-c1ccc(N2C[C@H]3CCN[C@H]3C2)cc1.O=C(O)C(F)(F)F` [Cpd 190, 5-ethyl-6-{4-[(3aR,6aR)-hexahydropyrrolo[3,4-b]pyrrol-5(1H)-yl]phenyl}-2-oxo-1,2-dihydropyridine-3-carboxylic acid trifluoroacetate], the minimal inhibitory concentration (MIC) in experiment [1] (setting [5]) was in the range of 12.5 to 150 µg/mL; in experiment [2], 12.5 to 150 µg/mL; in experiment [3] (setting [6]) it was 12.5 to 150 µg/mL; in experiment [4], 1 to 3.5 µg/mL.

On to `CCc1cc(C(=O)O)c(=O)[nH]c1-c1ccc(N2CCC(CN3CCCC3)C2)cc1` (centres unmarked) [Cpd 191, 5-ethyl-2-oxo-6-{4-[3-(pyrrolidin-1-ylmethyl)pyrrolidin-1-yl]phenyl}-1,2-dihydropyridine-3-carboxylic acid], for which the MIC is 1 to 3.5 µg/mL (≈ 2.53 to 8.85 µM) in experiment [1] (setting [5]), 12.5 to 150 µg/mL (≈ 31.6 to 379 µM) in experiment [2], 12.5 to 150 µg/mL (≈ 31.6 to 379 µM) in experiment [3] (setting [6]) and less than 1 µg/mL in experiment [4] (setting [7]).

Regarding `CCc1cc(C(=O)O)c(=O)[nH]c1-c1ccc(N2C[C@H]3CCC[C@@H](N(C)C)[C@H]3C2)cc1.Cl` [Cpd 193, 6-{4-[(3aR,4R,7aS)-4-(dimethylamino)octahydro-2H-isoindol-2-yl]phenyl}-5-ethyl-2-oxo-1,2-dihydropyridine-3-carboxylic acid hydrochloride], the minimal inhibitory concentration (MIC) in experiment [1] (setting [5]) lay within 12.5 to 150 µg/mL; in experiment [2] it was 12.5 to 150 µg/mL; in experiment [3] (setting [6]), 12.5 to 150 µg/mL; in experiment [4] (setting [7]), 1 to 3.5 µg/mL.

Regarding `CCc1cc(C(=O)O)c(=O)[nH]c1-c1ccc(N2C[C@H]3CCC[C@@H](N(C)Cc4ccccc4)[C@H]3C2)cc1.O=C(O)C(F)(F)F` [Cpd 194, 6-(4-{(3aR,4R,7aS)-4-[benzyl(methyl)amino]octahydro-2H-isoindol-2-yl}phenyl)-5-ethyl-2-oxo-1,2-dihydropyridine-3-carboxylic acid trifluoroacetate], the minimal inhibitory concentration (MIC) in experiment [1] (setting [5]) was 12.5 to 150 µg/mL; in experiment [2], 12.5 to 150 µg/mL; in experiment [3] (setting [6]), 3.5 to 12.5 µg/mL; in experiment [4] it was 1 to 3.5 µg/mL.

As for `CCc1cc(C(=O)O)c(=O)[nH]c1-c1ccc(N2C[C@H]3CCC[C@@H](NC)[C@H]3C2)cc1` [Cpd 195, 5-ethyl-6-{4-[(3aR,4R,7aS)-4-(methylamino)octahydro-2H-isoiridol-2-yl]phenyl}-2-oxo-1,2-dihydropyridine-3-carboxylic acid trifluoroacetate], the MIC in experiment [1] (setting [5]) lay in the range of 3.5 to 12.5 µg/mL; in experiment [2] it was 12.5 to 150 µg/mL; in experiment [3] (setting [6]), 12.5 to 150 µg/mL; in experiment [4], 1 to 3.5 µg/mL.

For `CCc1cc(C(=O)O)c(=O)[nH]c1-c1ccc(N2C[C@H]3CCC[C@@H](N(Cc4ccccc4)Cc4ccccc4)[C@H]3C2)cc1.O=C(O)C(F)(F)F` [Cpd 196, 6-{4-[(3aR,4R,7aS)-4-(dibenzylamino)octahydro-2H-isoindol-2-yl]phenyl}-5-ethyl-2-oxo-1,2-dihydropyridine-3-carboxylic acid trifluoroacetate], the minimal inhibitory concentration (MIC) in experiment [1] (setting [5]), in experiment [2], in experiment [3] (setting [6]) and in experiment [4] was 12.5 to 150 µg/mL each time.

`CCc1cc(C(=O)O)c(=O)[nH]c1-c1ccc(N2C[C@H]3CCC[C@@H](N)[C@H]3C2)cc1.O=C(O)C(F)(F)F` [Cpd 197, 6-{4-[(3aR,4R,7aS)-4-aminooctahydro-2H-isoindol-2-yl]phenyl}-5-ethyl-2-oxo-1,2-dihydropyridine-3-carboxylic acid trifluoroacetate]: the minimal inhibitory concentration (MIC) in experiment [1] (setting [5]) lay within 12.5 to 150 µg/mL; in experiment [2], 12.5 to 150 µg/mL; in experiment [3] (setting [6]), 12.5 to 150 µg/mL; in experiment [4], 3.5 to 12.5 µg/mL.

`CCc1cc(C(=O)O)c(=O)[nH]c1-c1ccc(N2C[C@H]3CC[C@@H](N(C)C)[C@H]3C2)cc1.Cl` [Cpd 198, 6-{4-[(3aR,4R,6aS)-4-(dimethylamino)hexahydrocyclopenta[c]pyrrol-2(1H)-yl]phenyl}-5-ethyl-2-oxo-1,2-dihydropyridine-3-carboxylic acid hydrochloride]: the minimum inhibitory concentration (MIC) in experiment [1] (setting [5]) is 3.5 to 12.5 µg/mL; in experiment [2], 12.5 to 150 µg/mL; in experiment [3] (setting [6]), 12.5 to 150 µg/mL; in experiment [4] (setting [7]), less than 1 µg/mL.

On to `CCc1cc(C(=O)O)c(=O)[nH]c1-c1ccc(N2C[C@H]3CC[C@@H](N(C)Cc4ccccc4)[C@H]3C2)cc1.Cl` [Cpd 199, 6-{4-[(3aR,4R,6aS)-4-[benzyl(methyl)amino]hexahydrocyclopenta[c]pyrrol-2(1H)-yl]phenyl}-5-ethyl-2-oxo-1,2-dihydropyridine-3-carboxylic acid hydrochloride], for which the minimum inhibitory concentration (MIC) was 3.5 to 12.5 µg/mL in experiment [1] (setting [5]), 12.5 to 150 µg/mL in experiment [2], 3.5 to 12.5 µg/mL in experiment [3] (setting [6]) and less than 1 µg/mL in experiment [4] (setting [7]).

Consider `CCc1cc(C(=O)O)c(=O)[nH]c1-c1ccc(N2C[C@H]3CC[C@@H](NC)[C@H]3C2)cc1.Cl` [Cpd 200, 5-ethyl-6-{4-[(3aR,4R,6aS)-4-(methylamino)hexahydrocyclopenta[c]pyrrol-2(1H)-yl]phenyl}-2-oxo-1,2-dihydropyridine-3-carboxylic acid hydrochloride], for which the minimal inhibitory concentration (MIC) in experiment [1] (setting [5]) was 3.5 to 12.5 µg/mL; in experiment [2] it was 12.5 to 150 µg/mL; in experiment [3] (setting [6]), 12.5 to 150 µg/mL; in experiment [4] (setting [7]), 1 to 3.5 µg/mL.

In the case of `CCc1cc(C(=O)O)c(=O)[nH]c1-c1ccc(N2C[C@H]3CC[C@@H](N(Cc4ccccc4)Cc4ccccc4)[C@H]3C2)cc1.O=C(O)C(F)(F)F` [Cpd 201, 6-{4-[(3aR,4R,6aS)-4-(dibenzylamino)hexahydrocyclopenta[c]pyrrol-2(1H)-yl]phenyl}-5-ethyl-2-oxo-1,2-dihydropyridine-3-carboxylic acid trifluoroacetate], the minimal inhibitory concentration (MIC) in experiment [1] (setting [5]) fell in the range of 12.5 to 150 µg/mL; in experiment [2], 12.5 to 150 µg/mL; in experiment [3] (setting [6]), 12.5 to 150 µg/mL; in experiment [4], 3.5 to 12.5 µg/mL.

As for `CCc1cc(C(=O)O)c(=O)[nH]c1-c1ccc(N2C[C@H]3CC[C@H](N)[C@H]3C2)cc1.O=C(O)C(F)(F)F` [Cpd 204, 6-{4-[(3aR,4S,6aS)-4-aminohexahydrocyclopenta[c]pyrrol-2(1H)-yl]phenyl}-5-ethyl-2-oxo-1,2-dihydropyridine-3-carboxylic acid trifluoroacetate], the MIC fell in the range of 12.5 to 150 µg/mL in experiment [1] (setting [5]), 12.5 to 150 µg/mL in experiment [2], 12.5 to 150 µg/mL in experiment [3] (setting [6]) and 1 to 3.5 µg/mL in experiment [4].

In the case of `CCc1cc(C(=O)O)c(=O)[nH]c1-c1ccc(N2C[C@H]3CCCC[C@@]3(CN(C)C)C2)cc1.O=C(O)C(F)(F)F` [Cpd 205, 6-(4-{(3aR,7aS)-3a-[(dimethylamino)methyl]octahydro-2H-isoindol-2-yl}phenyl)-5-ethyl-2-oxo-1,2-dihydropyridine-3-carboxylic acid trifluoroacetate], the MIC in experiment [1] (setting [5]) is 12.5 to 150 µg/mL; in experiment [2], 12.5 to 150 µg/mL; in experiment [3] (setting [6]), 12.5 to 150 µg/mL; in experiment [4] it was 1 to 3.5 µg/mL.

As for `CCc1cc(C(=O)O)c(=O)[nH]c1-c1ccc(N2C[C@H]3CNC[C@H]3C2)cc1.Cl` [Cpd 207, 5-ethyl-6-{4-[(3aR,6aS)-hexahydropyrrolo[3,4-c]pyrrol-2(1H)-yl]phenyl}-2-oxo-1,2-dihydropyridine-3-carboxylic acid hydrochloride], the minimum inhibitory concentration (MIC) in experiment [1] (setting [5]) is 12.5 to 150 µg/mL; in experiment [2] it was 12.5 to 150 µg/mL; in experiment [3] (setting [6]), 12.5 to 150 µg/mL; in experiment [4] (setting [7]) it was 3.5 to 12.5 µg/mL.

Take `CCc1cc(C(=O)O)c(=O)[nH]c1-c1ccc(N2CC3NC3C2)cc1` (centres unmarked) [Cpd 209, 6-[4-(3,6-diazabicyclo[3.1.0]hex-3-yl)phenyl]-5-ethyl-2-oxo-1,2-dihydropyridine-3-carboxylic acid]: the MIC in experiment [1] is 12.5 to 150 µg/mL (≈ 38.4 to 461 µM); in experiment [2], 12.5 to 150 µg/mL (≈ 38.4 to 461 µM); in experiment [3], 12.5 to 150 µg/mL (≈ 38.4 to 461 µM); in experiment [4] (setting [7]), 3.5 to 12.5 µg/mL (≈ 10.8 to 38.4 µM).

On to `CCc1cc(C(=O)O)c(=O)[nH]c1-c1ccc(N2C[C@H]3C[C@@H](NC)[C@H]3C2)cc1.Cl` [Cpd 210, 5-ethyl-6-{4-[(1S,5R,6R)-6-(methylamino)-3-azabicyclo[3.2.0]hept-3-yl]phenyl}-2-oxo-1,2-dihydropyridine-3-carboxylic acid hydrochloride], for which the MIC lay in the range of 12.5 to 150 µg/mL in experiment [1] (setting [5]), 12.5 to 150 µg/mL in experiment [2], 12.5 to 150 µg/mL in experiment [3] (setting [6]) and 1 to 3.5 µg/mL in experiment [4] (setting [7]).

`CCc1cc(C(=O)O)c(=O)[nH]c1-c1ccc(N2C[C@H]3C[C@@H](N)[C@H]3C2)cc1` [Cpd 211, 6-{4-[(1S,5R,6R)-6-amino-3-azabicyclo[3.2.0]hept-3-yl]phenyl}-5-ethyl-2-oxo-1,2-dihydropyridine-3-carboxylic acid]: the MIC in experiment [1] (setting [5]) is 3.5 to 12.5 µg/mL (≈ 9.9 to 35.4 µM); in experiment [2] it was 12.5 to 150 µg/mL (≈ 35.4 to 424 µM); in experiment [3] (setting [6]), 12.5 to 150 µg/mL (≈ 35.4 to 424 µM); in experiment [4] (setting [7]) it was less than 1 µg/mL.

Consider `CCc1cc(C(=O)O)c(=O)[nH]c1-c1ccc(N2C[C@H]3C[C@H](N)[C@H]3C2)cc1.Cl` [Cpd 212, 6-{4-[(1S,5R,6S)-6-amino-3-azabicyclo[3.2.0]hept-3-yl]phenyl}-5-ethyl-2-oxo-1,2-dihydropyridine-3-carboxylic acid hydrochloride], for which the minimal inhibitory concentration (MIC) in experiment [1] (setting [5]) was 3.5 to 12.5 µg/mL; in experiment [2] it was 12.5 to 150 µg/mL; in experiment [3] (setting [6]), 12.5 to 150 µg/mL; in experiment [4] (setting [7]) it was less than 1 µg/mL.

Consider `CCc1cc(C(=O)O)c(=O)[nH]c1-c1ccc(N2CC3CCCNC3C2)cc1.Cl` (centres unmarked) [Cpd 213, 5-ethyl-6-[4-(octahydro-6H-pyrrolo[3,4-b]pyridin-6-yl)phenyl]-2-oxo-1,2-dihydropyridine-3-carboxylic acid hydrochloride], for which the minimal inhibitory concentration (MIC) lay in the range of 12.5 to 150 µg/mL in experiment [1] (setting [5]), 12.5 to 150 µg/mL in experiment [2], 12.5 to 150 µg/mL in experiment [3] (setting [6]) and 1 to 3.5 µg/mL in experiment [4] (setting [7]).

`CCc1cc(C(=O)O)c(=O)[nH]c1-c1ccc(N2CC(N)C3(CC3)C2)cc1.O=C(O)C(F)(F)F` (centres unmarked) [Cpd 214, 6-[4-(7-amino-5-azaspiro[2.4]hept-5-yl)phenyl]-5-ethyl-2-oxo-1,2-dihydropyridine-3-carboxylic acid trifluoroacetate]: the MIC in experiment [1] (setting [5]) was in the range of 12.5 to 150 µg/mL; in experiment [2], 12.5 to 150 µg/mL; in experiment [3] (setting [6]), 12.5 to 150 µg/mL; in experiment [4], 1 to 3.5 µg/mL.
